Measured values reported in patent US10858362B2, “Imidazopyrazinones as PDE1 inhibitors” (H. Lundbeck A/S, priority 2015, dated 2020).

Legend:
Assay type in all cases: biochemical
[1] = target: PDE1A (Homo sapiens (Human), UniProt P54750); experiment: PDE1 inhibition assay, PDE1A; conditions: for inhibition at 2 µM: read-out: PDE1A, % inhibition (at 2 μM); for IC50: 15 nM tritium labelled cAMP; for inhibition at 10 µM: read-out: PDE1A, % inhibition (at 10 μM)
Procedure: (§1) Reactions were initiated by addition of the cyclic nucleotide substrate, and reactions were allowed to proceed for 1 h at room temperature before being terminated through mixing with 20 μL (0.2 mg) yttrium silicate SPA beads (PerkinElmer).

[2] = target: PDE1B (Homo sapiens (Human), UniProt Q01064); experiment: PDE1 inhibition assay, PDE1B; conditions: for inhibition at 2 µM: read-out: PDE1B, % inhibition (at 2 μM); for inhibition at 1 µM: read-out: PDE1B, % inhibition (at 1 μM); for IC50: 15 nM tritium labelled cAMP
Sequence of PDE1B (Q01064 whole entry): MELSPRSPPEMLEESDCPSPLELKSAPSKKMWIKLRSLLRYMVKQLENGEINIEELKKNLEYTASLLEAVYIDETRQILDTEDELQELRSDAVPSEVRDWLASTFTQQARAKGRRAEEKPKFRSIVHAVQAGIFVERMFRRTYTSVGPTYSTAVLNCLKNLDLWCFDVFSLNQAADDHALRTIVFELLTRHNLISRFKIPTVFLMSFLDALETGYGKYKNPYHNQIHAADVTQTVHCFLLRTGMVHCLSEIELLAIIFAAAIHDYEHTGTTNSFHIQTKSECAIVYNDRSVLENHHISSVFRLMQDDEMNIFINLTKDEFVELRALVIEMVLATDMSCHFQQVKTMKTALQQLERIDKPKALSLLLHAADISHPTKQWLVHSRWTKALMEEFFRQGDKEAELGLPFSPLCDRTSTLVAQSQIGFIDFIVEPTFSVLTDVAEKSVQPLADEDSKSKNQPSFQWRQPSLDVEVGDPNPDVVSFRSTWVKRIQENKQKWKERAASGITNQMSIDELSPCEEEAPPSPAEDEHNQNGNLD
Procedure: as §1, with “(PerkinElmer). The beads were allowed to settle for 1 h in the dark before the plates were counted in a Wallac 1450 Microbeta counter.” for “(PerkinElmer).”

[3] = target: PDE1C (Homo sapiens (Human), UniProt Q14123); experiment: PDE1 inhibition assay, PDE1C; conditions: for IC50: 15 nM tritium labelled cAMP
Sequence of PDE1C (Q14123 whole entry): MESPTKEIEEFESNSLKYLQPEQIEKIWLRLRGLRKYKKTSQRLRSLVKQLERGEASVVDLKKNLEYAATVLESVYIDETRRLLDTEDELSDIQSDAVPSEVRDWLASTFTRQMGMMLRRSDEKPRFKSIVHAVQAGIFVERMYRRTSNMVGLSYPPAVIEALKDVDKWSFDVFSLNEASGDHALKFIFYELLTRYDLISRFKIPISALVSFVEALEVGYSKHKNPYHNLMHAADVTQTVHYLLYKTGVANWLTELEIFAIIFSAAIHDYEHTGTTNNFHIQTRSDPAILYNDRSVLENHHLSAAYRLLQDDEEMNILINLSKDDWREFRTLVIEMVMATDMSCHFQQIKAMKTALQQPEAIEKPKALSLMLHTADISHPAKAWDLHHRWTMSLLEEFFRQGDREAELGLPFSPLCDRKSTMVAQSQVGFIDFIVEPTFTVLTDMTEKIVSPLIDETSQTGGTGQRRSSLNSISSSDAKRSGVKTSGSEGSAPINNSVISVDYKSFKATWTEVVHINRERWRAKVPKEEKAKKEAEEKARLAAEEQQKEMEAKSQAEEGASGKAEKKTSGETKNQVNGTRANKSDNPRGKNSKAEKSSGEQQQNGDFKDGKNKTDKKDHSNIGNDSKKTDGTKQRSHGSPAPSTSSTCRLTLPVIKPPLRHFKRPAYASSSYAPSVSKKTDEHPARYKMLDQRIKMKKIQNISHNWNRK
Procedure: as §1, with “(PerkinElmer). The beads were allowed to settle for 1 h in the dark before the plates were counted in a Wallac 1450 Microbeta counter.” for “(PerkinElmer).”

[4] = target: PDE9 (Homo sapiens (Human), UniProt O76083); experiment: PDE9 inhibition assay
Sequence of PDE9 (O76083 whole entry): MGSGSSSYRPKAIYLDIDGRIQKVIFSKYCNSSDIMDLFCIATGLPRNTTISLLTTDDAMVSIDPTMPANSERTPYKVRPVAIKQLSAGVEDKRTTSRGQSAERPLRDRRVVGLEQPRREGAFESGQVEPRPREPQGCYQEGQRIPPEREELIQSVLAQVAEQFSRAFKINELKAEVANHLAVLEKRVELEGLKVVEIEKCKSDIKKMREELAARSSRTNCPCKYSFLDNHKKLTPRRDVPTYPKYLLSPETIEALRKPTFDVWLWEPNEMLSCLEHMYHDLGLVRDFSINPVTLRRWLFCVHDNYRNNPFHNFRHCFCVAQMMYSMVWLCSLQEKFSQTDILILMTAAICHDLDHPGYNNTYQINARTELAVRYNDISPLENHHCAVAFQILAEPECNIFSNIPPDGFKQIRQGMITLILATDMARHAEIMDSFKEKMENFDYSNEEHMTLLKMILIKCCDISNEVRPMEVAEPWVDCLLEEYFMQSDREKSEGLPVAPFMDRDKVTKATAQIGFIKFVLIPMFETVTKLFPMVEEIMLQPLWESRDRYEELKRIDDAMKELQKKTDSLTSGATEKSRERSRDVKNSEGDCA
Method in brief: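 Human PDE9 in 50 mM HEPES pH 7.6, 10 mM MgCl2, 0.02% Tween20, enzyme set to convert 20-25% of 10 nM ^3H-cAMP substrate; inhibitors at varying amounts. 1 hr incubation, stopped with yttrium silicate SPA beads, settled 1 hr in dark, then scintillation counted.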

Sequence of PDE1A (P54750 whole entry): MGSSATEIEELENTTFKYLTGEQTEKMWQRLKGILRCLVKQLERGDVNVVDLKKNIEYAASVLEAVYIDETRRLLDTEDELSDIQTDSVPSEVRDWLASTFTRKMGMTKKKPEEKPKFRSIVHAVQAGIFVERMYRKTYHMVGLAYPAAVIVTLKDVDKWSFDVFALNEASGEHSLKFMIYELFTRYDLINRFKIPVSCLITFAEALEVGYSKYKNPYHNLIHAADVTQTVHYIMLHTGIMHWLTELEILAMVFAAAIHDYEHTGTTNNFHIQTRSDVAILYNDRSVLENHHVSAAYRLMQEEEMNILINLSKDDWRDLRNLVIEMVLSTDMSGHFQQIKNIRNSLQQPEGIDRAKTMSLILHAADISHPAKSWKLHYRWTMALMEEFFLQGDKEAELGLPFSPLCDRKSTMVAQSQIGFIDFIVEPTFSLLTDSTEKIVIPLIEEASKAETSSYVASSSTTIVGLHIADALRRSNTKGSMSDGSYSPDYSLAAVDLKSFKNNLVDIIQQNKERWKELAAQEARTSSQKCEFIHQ

O=c1c2cnc(C3CC3)n2ccn1Cc1cccc(F)c1 [Example 6, 3-Cyclopropyl-7-(3-fluorobenzyl)imidazo[1,5-a]pyrazin-8(7H)-one]
inhibition at 2 µM [1]: 68% | inhibition at 2 µM [2]: 81% | IC50 [3]: 290 nM | inhibition at 10 µM [4]: 25%

CCc1ccccc1Cn1c(C)cn2c(C3CCOCC3)ncc2c1=O [Example 49, 7-(2-ethylbenzyl)-6-methyl-3-(tetrahydro-2H-pyran-4-yl)imidazo[1,5-a]pyrazin-8(7H)-one]
percent inhibition of PDE1A at 2 µM ([1]; at 2 μM, % sign not given): 44 | inhibition at 1 µM [2]: 60% | IC50 [3]: 173 nM | inhibition at 10 µM [4]: 1%

COc1ccc(Cn2c(C)cn3c(N4CCCOCC4)ncc3c2=O)cc1 [Example 97, 7-(4-methoxybenzyl)-6-methyl-3-(1,4-oxazepan-4-yl)imidazo[1,5-a]pyrazin-8(7H)-one]
IC50 [1]: 202 nM | IC50 [2]: 82 nM | IC50 [3]: 128 nM | inhibition at 10 µM [4]: -8%

Cc1cn2c([C@H]3CCO[C@H]3C)ncc2c(=O)n1Cc1cccc(F)c1 (single isomer, unassigned; isomer 4) [36, isomer 4]
IC50 [1]: 51 nM | IC50 [2]: 520 nM | PDE1C, % inhibition (at 1 μM) ([3]; at 1 μM): 40% | % inhibition of PDE9 at 10 microM [4]: 11%

Cc1cn2c(C3CCOCC3)ncc2c(=O)n1Cc1ccccc1Cl [Example 19, 7-(2-Chlorobenzyl)-6-methyl-3-(tetrahydro-2H-pyran-4-yl)imidazo[1,5-a]pyrazin-8(7H)-one]
IC50 [1]: 46 nM | IC50 [2]: 68 nM | IC50 [3]: 10 nM | inhibition at 10 µM [4]: 18%

CCCc1ncc2c(=O)n(CC3CCCCC3)c(C)cn12 [Example 85, 7-(cyclohexylmethyl)-6-methyl-3-propylimidazo[1,5-a]pyrazin-8(7H)-one]
IC50 [1]: 120 nM | IC50 [2]: 32 nM | IC50 [3]: 32 nM | inhibition at 10 µM [4]: 7%

Cc1cn2c([C@@H]3C[C@@H]3C)ncc2c(=O)n1Cc1cccc(F)c1 (single isomer, unassigned; isomer 1) [35, isomer 1]
IC50 [1]: 193 nM | IC50 [2]: 75 nM | IC50 [3]: 19 nM | % inhibition of PDE9 at 10 microM [4]: −11%

COc1ccc(Cn2c(C)cn3c(C4CCc5ccc(Cl)cc54)ncc3c2=O)cc1 (centres unmarked) [Example 74, 3-(6-chloro-2,3-dihydro-1H-inden-1-yl)-7-(4-methoxybenzyl)-6-methylimidazo[1,5-a]pyrazin-8(7H)-one]
IC50 [1]: 5 nM | IC50 [2]: 2 nM | IC50 [3]: 3 nM | inhibition at 10 µM [4]: -19%

CO[C@H]1CC[C@@H](Cn2c(C)cn3c(C4CCOCC4)ncc3c2=O)CC1 [Example 67, 7-(((cis)-4-methoxycyclohexyl)methyl)-6-methyl-3-(tetrahydro-2H-pyran-4-yl)imidazo[1,5-a]pyrazin-8(7H)-one]
IC50 [1]: 234 nM | IC50 [2]: 87 nM | IC50 [3]: 307 nM | inhibition at 10 µM [4]: 10%

Cc1cn2c(C3CCOCC3)ncc2c(=O)n1Cc1ccc(F)cc1 [Example 24, 7-(4-Fluorobenzyl)-6-methyl-3-(tetrahydro-2H-pyran-4-yl)imidazo[1,5-a]pyrazin-8(7H)-one]
IC50 [1]: 38 nM | IC50 [2]: 43 nM | IC50 [3]: 17 nM | inhibition at 10 µM [4]: -1%

COc1ccc(Cn2c(C)cn3c(C4CCOCC4C)ncc3c2=O)cc1 (centres unmarked) [Example 69, 7-(4-methoxybenzyl)-6-methyl-3-(3-methyltetrahydro-2H-pyran-4-yl)imidazo[1,5-a]pyrazin-8(7H)-one]
IC50 [1]: 13 nM | IC50 [2]: 8 nM | IC50 [3]: 24 nM | inhibition at 10 µM [4]: 2%

Cc1cn2c([C@@H]3CCCOC3)ncc2c(=O)n1Cc1cccc(F)c1 (single isomer, unassigned; isomer 1) [100, isomer 1]
IC50 [1]: 306 nM | IC50 [2]: 223 nM | IC50 [3]: 43 nM | % inhibition of PDE9 at 10 microM [4]: 11%

Cc1cn2c(C3CCOCC3)ncc2c(=O)n1C [Example 58, 6,7-dimethyl-3-(tetrahydro-2H-pyran-4-yl)imidazo[1,5-a]pyrazin-8(7H)-one]
inhibition at 10 µM [1]: 58% | IC50 [2]: 1770 nM | inhibition at 10 µM ([3]; read-out: PDE1C, % inhibition (at 10 μM)): 44% | inhibition at 10 µM [4]: 36%

Cc1cn2c(C3(C)CCOCC3)ncc2c(=O)n1Cc1cccc(F)c1 [Example 26, 7-(3-fluorobenzyl)-6-methyl-3-(4-methyltetrahydro-2H-pyran-4-yl)imidazo[1,5-a]pyrazin-8(7H)-one]
IC50 [1]: 234 nM | IC50 [2]: 218 nM | IC50 [3]: 47 nM | inhibition at 10 µM [4]: -2%

Cc1cn2c(C3CCOCC3)ncc2c(=O)n1Cc1ccc(C#N)cc1 [Example 46, 4-((6-methyl-8-oxo-3-(tetrahydro-2H-pyran-4-yl)imidazo[1,5-a]pyrazin-7(8H)-yl)methyl)benzonitrile]
IC50 [1]: 809 nM | inhibition at 1 µM [2]: 58% | inhibition at 1 µM ([3]; read-out: PDE1C, % inhibition (at 1 μM)): 9% | inhibition at 10 µM [4]: 14%

COc1ccc(Cn2c(C)cn3c(C4CCOCC4)ncc3c2=O)cc1 [Example 23, 7-(4-Methoxybenzyl)-6-methyl-3-(tetrahydro-2H-pyran-4-yl)imidazo[1,5-a]pyrazin-8(7H)-one]
IC50 [1]: 14 nM | IC50 [2]: 12 nM | IC50 [3]: 19 nM | inhibition at 10 µM [4]: 16%

O=c1c2cnc(C3CC3)n2ccn1CC1CCCCC1 [Example 8, 7-(Cyclohexylmethyl)-3-cyclopropylimidazo[1,5-a]pyrazin-8(7H)-one]
IC50 [1]: 252 nM | IC50 [2]: 67 nM | IC50 [3]: 100 nM | inhibition at 10 µM [4]: 9%

O=c1c2cnc(C3CCOCC3)n2ccn1Cc1cccc(F)c1 [Example 9, 7-(3-Fluorobenzyl)-3-(tetrahydro-2H-pyran-4-yl)imidazo[1,5-a]pyrazin-8(7H)-one]
inhibition at 2 µM [1]: 68% | inhibition at 2 µM [2]: 90% | IC50 [3]: 170 nM | inhibition at 10 µM [4]: 2%

Cc1cn2c([C@@H]3CCCCO3)ncc2c(=O)n1Cc1cccc(F)c1 (single isomer, unassigned; isomer 1) [30, isomer 1]
PDE1A, % inhibition (at 1 μM) ([1]; at 1 μM): 20% | IC50 [2]: 615 nM | IC50 [3]: 225 nM | % inhibition of PDE9 at 10 microM [4]: −11%

O=c1c2cnc(C3CCOCC3)n2cc(Cc2ccccc2)n1CC1CCCCC1 [Example 3, 6-Benzyl-7-(cyclohexylmethyl)-3-(tetrahydro-2H-pyran-4-yl)imidazo[1,5-a]pyrazin-8(7H)-one]
IC50 [1]: 8 nM | IC50 [2]: 12 nM | IC50 [3]: 6 nM | inhibition at 10 µM [4]: -6%

Cc1cc(Cn2c(C)cn3c(C4CCOCC4)ncc3c2=O)no1 [Example 82, 6-methyl-7-((5-methylisoxazol-3-yl)methyl)-3-(tetrahydro-2H-pyran-4-yl)imidazo[1,5-a]pyrazin-8(7H)-one]
inhibition at 10 µM [1]: 67% | IC50 [2]: 1500 nM | IC50 [3]: 1030 nM | inhibition at 10 µM [4]: 7%

COc1ccc(Cn2c(C)cn3c(C4(C)CNC(=O)C4)ncc3c2=O)cc1 (centres unmarked) [Example 75, 7-(4-methoxybenzyl)-6-methyl-3-(3-methyl-5-oxopyrrolidin-3-yl)imidazo[1,5-a]pyrazin-8(7H)-one]
IC50 [1]: 236 nM | IC50 [2]: 297 nM | IC50 [3]: 360 nM | inhibition at 10 µM [4]: 8%

COc1ccc(Cn2c(C)cn3c(C4CCOCC4)ncc3c2=O)cc1Cl [Example 51, 7-(3-chloro-4-methoxybenzyl)-6-methyl-3-(tetrahydro-2H-pyran-4-yl)imidazo[1,5-a]pyrazin-8(7H)-one]
IC50 [1]: 199 nM | IC50 [2]: 36 nM | IC50 [3]: 46 nM | inhibition at 10 µM [4]: 1%
